Ends that are not written are not given here.
What was measured:
[1] = biological target: target 13-mer (GP-1), amino terminus of a membrane glycoprotein; assay: HPLAC zonal elution on column with immobilized target 13-mer (GP-1); format: binding, rat; conditions: for binding constants (in words): text summary of Table 4; for Km: zonal elution, immobilized GP-1, 100 mM NH4OAc pH 5.7, flow rate 1.0 ml/min, extrapolated to [P]=0, read-out: Equilibrium binding constant (dissociation constant) KM/P
Experimental: (§1) The recognition of the target peptide by the anti-sense peptides was evaluated by high performance affinity chroma tography (I. Chaiken, Ed., "Analytical Affinity Chromatography," CRC Press, Boca Raton, 1987). This system was chosen because it allows direct measurement of molecular interactions and it is not limited by either molecular size or by the need for a specialized detection system. The target 13-mer (GP-1) was immobilized on an affinity support system. The binding properties to the target peptide were evaluated by zonal elution methods (FIG. III) (Y. Shai et al, Biochem., 26:669 (1987)). The anti-sense recognition peptides were eluted on the sense column and the retardation volume of the peptide (V) was compared to the column void volume (Vo). Equilibrium binding constants were determined by loading varying amounts of the anti-sense peptides on the column and employing the equation: [formula] where KM/P represents the dissociation constant for the binding process,
MT is the amount of target peptide immobilized and
[P]represents the amount of recognition peptide eluted E. Swaisgood et al, Biochem., 25:4148 (1986)).
The KM/P values are obtained subsequent to extrapolation to [P]=0.
Values were obtained by zonal elution on a column with immobilized target
peptide (GP1) equilibrated with 100 mM NH4 OAc, pH = 5.7 with column
flow rate of 1.0 ml/min.

[2] = biological target: putative ATP binding region of the raf (raf 357-376) (Rattus norvegicus, UniProt P11345); assay: HPLAC on immobilized raf ATP binding region
Experimental: The values of the dissociation constants (KM/P) are obtained in 0.1 M NH4 CH3 COO pH 5.7.
as §1, with “The anti-sense recognition peptides were eluted on the sense column and the retardation volume of the peptide (V) was compared to the column void volume (Vo).” left out
In order to evaluate the general applicability of the complementary scoring program, a comparison was made between the DNA derived anti-sense peptide and a computer generated recognition-peptide. […] To compare the relative affinities of the DNA derived anti-sense peptide (FAR-[…]) and the computer generated recognition peptide (FARCG--[…]), the raf ATP binding region ([…]) was immobilized on an affinity support and the two anti-sense peptides evaluated by HPLAC techniques.

Km ([2]; immobilized raf ATP binding region GSGSFGTVYKGKWHGDVAVK, 0.1 M NH4CH3COO pH 5.7, read-out: Equilibrium binding constant KM/P) [µM]	fold higher affinity for the target peptide compared to the DNA derived anti-sense peptide ([2]; relative to FAR) [fold]	Sequence	binding constants (in words) [1]	Km [1] [µM]
		AAQHGRGFGIQIE [CODON-2]	millimolar range	460
8	~50	FHGHISMPFAFVYSSKAAAA [FAR-CG]		
		AAQHGGGLGVQVE [CODON-1, AAQHGGGLGVQVE]	millimolar range	920

— US5081584A, “Computer-assisted design of anti-peptides based on the amino acid sequence of a target peptide” (United States of America, priority 1989, dated 1992)
